Converted amounts (≈) assume the structure as drawn.
Legend:
Staphylococcus aureus [1] = assay: Antibacterial activity against MsrA pump expressing Staphylococcus aureus after 24 hrs by geometric microdilution method; format: functional
Staphylococcus aureus [2] = assay: Antibacterial activity against aminoglycoside-6'-N-acetyltransferase/2''-O-phosphoryltransferase expressing Staphylococcus aureus after 24 hrs by geometric microdilution method; format: functional
Staphylococcus aureus [3] = assay: Antibacterial activity against aminoglycoside-3'-O-phosphoryltransferase expressing Staphylococcus aureus after 24 hrs by geometric microdilution method; format: functional
Staphylococcus aureus [4] = assay: Antibacterial activity against aminoglycoside-4'-O-phosphoryltransferase expressing Staphylococcus aureus after 24 hrs by geometric microdilution method; format: functional
Staphylococcus aureus [5] = assay: Antibacterial activity against methicillin-resistant Staphylococcus aureus ATCC 33592 clinical isolate after 24 hrs by geometric microdilution method; format: functional; details: ATCC 33592, 24 h
Staphylococcus aureus [6] = assay: Antibacterial activity against vancomycin-resistant Staphylococcus aureus VRS-2 after 24 hrs by geometric microdilution method; format: functional; details: VRS-2, 24 h
Acinetobacter lwoffii [7] = assay: Antibacterial activity against […] expressing Acinetobacter lwoffii AI.88-483 after 24 hrs by geometric microdilution method; format: functional; details: AI.88-483, 24 h
Pseudomonas aeruginosa [8] = assay: Antibacterial activity against Pseudomonas aeruginosa ATCC 27853 after 24 hrs by geometric microdilution method; format: functional; details: ATCC 27853, 24 h
Pseudomonas aeruginosa [9] = assay: Antibacterial activity against AAC6'-2a expressing Pseudomonas aeruginosa F03 after 24 hrs by geometric microdilution method; format: functional; details: F03, 24 h
Pseudomonas aeruginosa [10] = assay: Antibacterial activity against MexXY expressing Pseudomonas aeruginosa PT629 after 24 hrs by geometric microdilution method; format: functional; details: PT629, 24 h
Klebsiella pneumoniae = assay: Antibacterial activity against Klebsiella pneumoniae ATCC 700603 after 24 hrs by geometric microdilution method; format: functional; details: ATCC 700603, 24 h
Escherichia coli [11] = assay: Antibacterial activity against AAC6'-2b expressing Escherichia coli PAZ505H8101 after 24 hrs by geometric microdilution method; format: functional; details: PAZ505H8101, 24 h
Escherichia coli [12] = assay: Antibacterial activity against ANT2'-2a expressing Escherichia coli L58058.1 after 24 hrs by geometric microdilution method; format: functional; details: L58058.1, 24 h
Pseudomonas aeruginosa [13] = assay: Antibacterial activity against Pseudomonas aeruginosa PAO1 after 24 hrs by geometric microdilution method; format: functional; details: PAO1, 24 h
Pseudomonas aeruginosa [14] = assay: Antibacterial activity against MexCD expressing Pseudomonas aeruginosa PA01 after 24 hrs by geometric microdilution method; format: functional; details: PA01, 24 h
Pseudomonas aeruginosa [15] = assay: Antibacterial activity against MexEF expressing Pseudomonas aeruginosa PA03 after 24 hrs by geometric microdilution method; format: functional; details: PA03, 24 h
Pseudomonas aeruginosa [16] = assay: Antibacterial activity against MexAB expressing Pseudomonas aeruginosa PA21 after 24 hrs by geometric microdilution method; format: functional; details: PA21, 24 h
Pseudomonas aeruginosa [17] = assay: Antibacterial activity against MexXY expressing Pseudomonas aeruginosa PA22 after 24 hrs by geometric microdilution method; format: functional; details: PA22, 24 h
Pseudomonas aeruginosa [18] = assay: Antibacterial activity against TriABC expressing MexAB, MexCD, MexEF, MexXY deleted Pseudomonas aeruginosa PA405 after 24 hrs by geometric microdilution method; format: functional; details: PA405, 24 h
Pseudomonas aeruginosa [19] = assay: Antibacterial activity against MexAB, MexCD, MexEF, MexXY, TriABC deleted Pseudomonas aeruginosa PA406 after 24 hrs by geometric microdilution method; format: functional; details: PA406, 24 h
Staphylococcus aureus [20] = assay: Antibacterial activity against Staphylococcus aureus ATCC 25923 after 24 hrs by geometric microdilution method; format: functional; details: ATCC 25923, 24 h
Staphylococcus aureus [21] = assay: Antibacterial activity against NorA pump expressing Staphylococcus aureus after 24 hrs by geometric microdilution method; format: functional
Acinetobacter lwoffii [22] = assay: microbe, parasite or virus in culture; details: ATCC 17925, 24 h
Description: Antibacterial activity against Acinetobacter lwoffii ATCC 17925 after 24 hrs by geometric microdilution method

Escherichia coli [23] = assay: microbe, parasite or virus in culture; details: ATCC 25922, 24 h
Description: Antibacterial activity against Escherichia coli ATCC 25922 after 24 hrs by geometric microdilution method

SMILES	MIC (Staphylococcus aureus [1])	MIC (Staphylococcus aureus [2])	MIC (Staphylococcus aureus [3])	MIC (Staphylococcus aureus [4])	MIC (Staphylococcus aureus [5])	MIC (Acinetobacter lwoffii [7])	MIC (Pseudomonas aeruginosa [8])	MIC (Pseudomonas aeruginosa [9])	MIC (Pseudomonas aeruginosa [10])	MIC (Klebsiella pneumoniae)	MIC (Escherichia coli [11])	MIC (Escherichia coli [12])	MIC (Pseudomonas aeruginosa [13])	MIC (Pseudomonas aeruginosa [14])	MIC (Pseudomonas aeruginosa [15])	MIC (Pseudomonas aeruginosa [16])	MIC (Pseudomonas aeruginosa [17])	MIC (Pseudomonas aeruginosa [18])	MIC (Staphylococcus aureus [20])	MIC (Staphylococcus aureus [21])	other results
NC[C@H]1O[C@H](O[C@H]2[C@H](O)[C@@H](O)[C@H](N)C[C@@H]2N)[C@H](N)[C@@H](OCc2ccc3ccccc3c2)[C@@H]1OCc1ccc2ccccc2c1	8 µg/mL (≈ 13.3 µM)	8 µg/mL (≈ 13.3 µM)	4 µg/mL (≈ 6.64 µM)	8 µg/mL (≈ 13.3 µM)	8 µg/mL (≈ 13.3 µM)	> 128 µg/mL	32 µg/mL (≈ 53.1 µM)	> 128 µg/mL	> 128 µg/mL	> 128 µg/mL	16 µg/mL (≈ 26.5 µM)	16 µg/mL (≈ 26.5 µM)	64 µg/mL (≈ 106 µM)	16 µg/mL (≈ 26.5 µM)	8 µg/mL (≈ 13.3 µM)	64 µg/mL (≈ 106 µM)	> 128 µg/mL	8 µg/mL (≈ 13.3 µM)	4 µg/mL (≈ 6.64 µM)	8 µg/mL (≈ 13.3 µM)	MIC (Staphylococcus aureus [6]): 4 µg/mL (≈ 6.64 µM); MIC (Pseudomonas aeruginosa [19]): 8 µg/mL (≈ 13.3 µM); MIC (Acinetobacter lwoffii [22]): 8 µg/mL (≈ 13.3 µM); MIC (Escherichia coli [23]): 32 µg/mL (≈ 53.1 µM)
NC[C@H]1O[C@H](O[C@H]2[C@H](O)[C@@H](OCc3ccc4ccccc4n3)[C@H](N)C[C@@H]2N)[C@H](N)[C@@H](OCc2ccc3ccccc3n2)[C@@H]1O	> 128 µg/mL	> 128 µg/mL	> 128 µg/mL	> 128 µg/mL	–	–	–	–	–	–	–	–	–	–	–	–	–	–	> 128 µg/mL	> 128 µg/mL	–
NC[C@H]1O[C@H](O[C@H]2[C@H](O)[C@@H](OCc3ccc4ccccc4c3)[C@H](N)C[C@@H]2N)[C@H](N)[C@@H](O)[C@@H]1OCc1ccc2ccccc2c1	32 µg/mL (≈ 53.1 µM)	32 µg/mL (≈ 53.1 µM)	16 µg/mL (≈ 26.5 µM)	16 µg/mL (≈ 26.5 µM)	64 µg/mL (≈ 106 µM)	> 128 µg/mL	> 128 µg/mL	> 128 µg/mL	> 128 µg/mL	> 128 µg/mL	64 µg/mL (≈ 106 µM)	128 µg/mL (≈ 212 µM)	> 128 µg/mL	128 µg/mL (≈ 212 µM)	16 µg/mL (≈ 26.5 µM)	> 128 µg/mL	> 128 µg/mL	32 µg/mL (≈ 53.1 µM)	32 µg/mL (≈ 53.1 µM)	32 µg/mL (≈ 53.1 µM)	MIC (Staphylococcus aureus [6]): 32 µg/mL (≈ 53.1 µM); MIC (Pseudomonas aeruginosa [19]): 16 µg/mL (≈ 26.5 µM); MIC (Acinetobacter lwoffii [22]): 64 µg/mL (≈ 106 µM); MIC (Escherichia coli [23]): 128 µg/mL (≈ 212 µM)
NC[C@H]1O[C@H](O[C@H]2[C@H](O)[C@@H](OCc3ccc4ccccc4c3)[C@H](N)C[C@@H]2N)[C@H](N)[C@@H](O)[C@@H]1O	> 128 µg/mL	> 128 µg/mL	> 128 µg/mL	> 128 µg/mL	> 128 µg/mL	–	–	–	–	–	–	–	–	–	–	–	–	–	> 128 µg/mL	> 128 µg/mL	–
NC[C@H]1O[C@H](O[C@H]2[C@H](O)[C@@H](O)[C@H](N)C[C@@H]2N)[C@H](N)[C@@H](OCc2ccc3ccccc3c2)[C@@H]1O	> 128 µg/mL	> 128 µg/mL	128 µg/mL (≈ 277 µM)	> 128 µg/mL	–	–	–	–	–	–	–	–	–	–	–	–	–	–	> 128 µg/mL	> 128 µg/mL	–
NC[C@H]1O[C@H](O[C@H]2[C@H](O)[C@@H](OCc3ccc4ccccc4n3)[C@H](N)C[C@@H]2N)[C@H](N)[C@@H](OCc2ccc3ccccc3n2)[C@@H]1OCc1ccc2ccccc2n1	> 128 µg/mL	128 µg/mL (≈ 172 µM)	64 µg/mL (≈ 85.8 µM)	> 128 µg/mL	64 µg/mL (≈ 85.8 µM)	> 128 µg/mL	> 128 µg/mL	> 128 µg/mL	> 128 µg/mL	> 128 µg/mL	> 128 µg/mL	> 128 µg/mL	> 128 µg/mL	> 128 µg/mL	> 128 µg/mL	> 128 µg/mL	> 128 µg/mL	64 µg/mL (≈ 85.8 µM)	128 µg/mL (≈ 172 µM)	> 128 µg/mL	MIC (Staphylococcus aureus [6]): 64 µg/mL (≈ 85.8 µM); MIC (Pseudomonas aeruginosa [19]): 64 µg/mL (≈ 85.8 µM); MIC (Acinetobacter lwoffii [22]): 128 µg/mL (≈ 172 µM); MIC (Escherichia coli [23]): > 128 µg/mL
NC[C@H]1O[C@H](O[C@H]2[C@H](O)[C@@H](O)[C@H](N)C[C@@H]2N)[C@H](N)[C@@H](O)[C@@H]1OCc1ccc2ccccc2c1	> 128 µg/mL	> 128 µg/mL	> 128 µg/mL	> 128 µg/mL	–	–	–	–	–	–	–	–	–	–	–	–	–	–	> 128 µg/mL	> 128 µg/mL	–
NC[C@H]1O[C@H](O[C@H]2[C@H](OCc3ccc4ccccc4c3)[C@@H](OCc3ccc4ccccc4c3)[C@H](N)C[C@@H]2N)[C@H](N)[C@@H](OCc2ccc3ccccc3c2)[C@@H]1OCc1ccc2ccccc2c1	–	–	–	–	–	> 128 µg/mL	64 µg/mL (≈ 72.5 µM)	64 µg/mL (≈ 72.5 µM)	64 µg/mL (≈ 72.5 µM)	128 µg/mL (≈ 145 µM)	64 µg/mL (≈ 72.5 µM)	64 µg/mL (≈ 72.5 µM)	64 µg/mL (≈ 72.5 µM)	64 µg/mL (≈ 72.5 µM)	64 µg/mL (≈ 72.5 µM)	64 µg/mL (≈ 72.5 µM)	64 µg/mL (≈ 72.5 µM)	64 µg/mL (≈ 72.5 µM)	–	–	MIC (Pseudomonas aeruginosa [19]): 64 µg/mL (≈ 72.5 µM)

— ChEMBL document CHEMBL1156794, “Synthesis and antimicrobial evaluation of amphiphilic neamine derivatives” (J Med Chem, 2010)
